Data taken from US4092412A, “Treatment of herpes simplex infections” (Abbott Laboratories, priority 1977, dated 1978).

How the values were obtained:
[1] = system: herpes simplex infections; assay: Topical test against herpes simplex infections in CF mice; format: in vivo; settings: 10 mice per group, topical 2% aqueous solution, 11 applications, 14 day test
Procedure: The following test was applied to determine the effectiveness of the carboxylic esters of phosphonoacetic acid against herpes simplex infections in mice. The compounds tested included the compounds shown above as II and III. Also included were a standard virus control as well as a normal (no virus) control.
Herpes virus (10^7 TCID50 /ml) was applied topically (0.05 ml) to the denuded skin and impregnated into the dermis with a 24-gauge sterile hypodermic needle. In untreated animals, herpes lesions or vesicles usually develop in 3 to 5 days. The lesions form bands which extend over the denuded area. After approximately 10 days, mice usually develop a paralysis which results in their death. The test was allowed to continue for a total of 14 days.
Some of the animals were treated topically by having the drug applied to the site of infection as a 2% aqueous solution 2 hours after the virus was introduced into the skin, and twice daily for 5 consecutive days. The drug was applied a total of 11 times. A single application of a 2% drug solution delivered approximately 2 mg of material.
The Mann-Whitney "U" Test was used to statistically analyze the herpes infection in mice by making paired comparisons between the treated and untreated virus control groups. […]

[2] = target: T1, Herpes simplex type 2 deoxyribonucleic acid (DNA) polymerase (Human herpesvirus 2, UniProt P89453); assay: Viral DNA polymerase assay; format: biochemical, herpes simplex virus type 2; settings: 50% inhibition of herpes simplex type 2 DNA polymerase; read-out: Concentration (μg/ml) giving 50% Percent Inhibition (converted)
T1 construct: made in house; host or cells: Herpes virus infected Wi-38 cells (native viral enzyme, not recombinant; DEAE-cellulose and phosphocellulose chromatography)
T1 sequence (P89453 1-1240): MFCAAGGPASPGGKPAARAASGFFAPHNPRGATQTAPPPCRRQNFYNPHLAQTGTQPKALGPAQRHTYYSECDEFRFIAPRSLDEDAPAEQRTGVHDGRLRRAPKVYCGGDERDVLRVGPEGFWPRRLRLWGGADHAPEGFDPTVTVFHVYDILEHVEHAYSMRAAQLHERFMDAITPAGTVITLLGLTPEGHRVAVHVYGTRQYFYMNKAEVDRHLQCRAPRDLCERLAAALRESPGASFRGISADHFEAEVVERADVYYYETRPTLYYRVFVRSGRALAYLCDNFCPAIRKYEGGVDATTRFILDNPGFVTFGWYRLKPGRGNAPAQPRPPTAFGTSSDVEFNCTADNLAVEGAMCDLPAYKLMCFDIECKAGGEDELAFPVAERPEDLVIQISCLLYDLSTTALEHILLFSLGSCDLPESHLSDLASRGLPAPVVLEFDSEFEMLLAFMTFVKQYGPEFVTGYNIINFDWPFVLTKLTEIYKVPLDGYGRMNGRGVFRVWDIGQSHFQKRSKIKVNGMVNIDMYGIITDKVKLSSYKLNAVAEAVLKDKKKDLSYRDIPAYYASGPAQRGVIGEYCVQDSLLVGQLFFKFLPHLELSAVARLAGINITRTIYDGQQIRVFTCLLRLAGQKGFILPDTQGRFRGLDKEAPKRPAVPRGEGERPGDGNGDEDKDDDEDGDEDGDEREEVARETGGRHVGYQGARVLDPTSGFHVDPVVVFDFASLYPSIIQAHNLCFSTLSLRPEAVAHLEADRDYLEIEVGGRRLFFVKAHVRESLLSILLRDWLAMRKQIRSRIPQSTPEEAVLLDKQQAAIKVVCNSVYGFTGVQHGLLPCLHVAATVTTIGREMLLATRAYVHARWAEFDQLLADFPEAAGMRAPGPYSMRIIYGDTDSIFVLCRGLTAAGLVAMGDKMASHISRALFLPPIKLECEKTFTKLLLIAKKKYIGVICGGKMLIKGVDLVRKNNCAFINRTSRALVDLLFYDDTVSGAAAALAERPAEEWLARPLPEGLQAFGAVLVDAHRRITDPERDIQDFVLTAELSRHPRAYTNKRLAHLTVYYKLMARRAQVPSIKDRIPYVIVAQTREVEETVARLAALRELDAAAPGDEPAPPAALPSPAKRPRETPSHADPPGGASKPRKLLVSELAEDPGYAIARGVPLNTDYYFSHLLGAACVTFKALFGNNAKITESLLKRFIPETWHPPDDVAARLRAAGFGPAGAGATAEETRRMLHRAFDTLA
Procedure: Isolation and Purification of Herpes Simplex Type 2 Deoxyribonucleic Acid (DNA) Polymerase
The DNA polymerase was isolated according to the procedure of Smith and Gallo (1972) which involved column chromatography on DEAE-cellulose and phosphocellulose. However, buffer containing 20% glyceryl instead of 10% was used. The final enzyme preparation has a specific activity of 313 unit/mg. for herpes simplex virus type 2.
Viral Deoxyribonucleic Acid (DNA) Polymerase Assay
The reaction mixture (0.2 ml.) contains 10 μM of 2'-deoxyadenosine-5'-triphosphate, 2'-deoxycytidine-5'-triphosphate, 2'-deoxyguanosine-5'-triphosphate, and 2.5 μM tritium labeled thymidine-5'-triphosphate which was appropriately diluted with unlabeled dTTP to give 880 counts per minute per pico-mole, 10 μg of activated calf thymus DNA 50 mM Tris-HCl buffer (pH 8.0), 3mM MgCl2, 100 mM KCl and 1 mM dithiothritol. The amounts of enzyme used in each reaction was chosen to give a linear rate for at least 30 minutes at 37° C. The reaction was terminated by the addition of 3 ml. of cold 5% trichloroacetic acid - 0.01 M sodium pyrophosphate. The acid-insoluble material was collected, washed twice on glass filter discs (Reeve Angel 984-H) and the incorporated ^3 H-dTMP was determined by a liquid scintillation counter.

[3] = system: herpes simplex virus (HSV) type 1 or type 2; assay: Antiviral activity by plaque reduction method; format: cell-based, herpes simplex virus (in rabbit kidney cells); set-up: key: 0 = inactive; +2 = moderate activity; +4 = very active; settings: rabbit kidney cells, plaques counted 3 to 4 days after infection
Procedure: Determination of Antiviral Activity by Plaque Reduction Method
The inhibitory effect of new compounds upon herpes simplex virus (HSV) type 1 or type 2 was analyzed by the plaque reduction assay. Confluent monolayers of rabbit kidney cells grown in 60 mm plastic petri dishes were infected with HSV by adsorption for 1 hour at room temperature. The appropriate concentration of the test compound was added at the time of initial virus infection. Following virus adsorption the cells were overlayed with Eagle's medium (BME) supplemented with 10% fetal bovine serum, 0.225% NaHCO3 and 0.5% methycellulose. The appropriate concentration of the test compound was also added to this overlay. Infected cultures were then incubated at 37° C. for the remainder of the test. Three to four days following virus infection, each culture was stained with crystal violet and the herpes virus induced plaques counted.

Compound	No. of Mice Dead [1]	No. of Mice Paralyzed [1]	IC50 [2]	Inhibition of plaques [3]
CCOC(=O)CP(=O)(O)O [Compound II, Ethyl Phosphonoacetate]	3	2	23.2 µM	+4
COC(=O)CP(=O)(O)O [Compound III, Methyl Phosphonoacetate]	5	2	45.4 µM	+2
